Test results reported in patent publication US8017350B2, “Glimepiride- and insulin-induced glycosylphosphatidylinositol-specific phospholipase C regulation” (Sanofi-Aventis Deutschland GmbH, priority 2004, dated 2011).
Where two headings read alike, the source gives them in different places.

Experiments:
stability of compound 3 = assay type: physicochemical
[1] = tested on: trypanosomal GPI-PLC (T. brucei); details: literature; cited from earlier work
[2] = tested on: GPI-proteins 5′-Nuc, Gce1 and aP in isolated rat adipocytes; test: localization of lipolytically cleaved and uncleaved GPI-proteins at hcDIGs, IcDIGs and total plasma membranes (TX-114 partitioning); assay type: cell-based; details: GPI-2350 50 μM, insulin 10 nM, glimepiride 20 μM; for 5′-Nuc amphiph IcDIGs / 5′-Nuc hydroph. IcDIGs / 5′-Nuc hydroph. hcDIGs / Gce1 amphiph IcDIGs / Gce1 hydroph. IcDIGs / Gce1 hydroph. hcDIGs / aP amphiph IcDIGs / aP hydroph. IcDIGs / aP hydroph. hcDIGs: amphiphilic version in hcDIGs of basal adipocytes set at 100; for 5′-Nuc hydroph. PM / Gce1 hydroph. PM / aP hydroph. PM: amphiphilic version in total plasma membranes of basal adipocytes set at 100; for 5′-Nuc amphiph hcDIGs / Gce1 amphiph hcDIGs / aP amphiph hcDIGs: basal set at 100
[3] = tested on: pp59Lyn and Gce1 interaction with caveolin-1 in rat adipocytes; test: dissociation of signaling proteins from caveolin (caveolin-1 immunoprecipitates of hcDIGs); assay type: cell-based; details: solubilized hcDIGs; FIG. 6
Description: Solubilized DIGs (see above, 5-20 μg protein) were precleared by incubation with protein A/G-Sepharose and subsequent centrifugation (10,000×g, 5 min). The supernatant was incubated with anti-caveolin-1 antibodies (1:1000) preadsorbed on protein A/G-Sepharose in 1 ml of 10 mM Tris/HCl (pH 7.4), 150 mM NaCl, 1% TX-100 for 1 h at 4° C. The immune complexes were washed twice with the same buffer and then twice with buffer lacking TX-100 and finally subjected to SDS-PAGE performed in the absence of β-mercaptoethanol. The recovery of immunoprecipitated caveolin was normalized by homologous immunoblotting with anti-caveolin antibodies of the same blot following stripping of the membrane.
Polypeptides separated by SDS-PAGE were transferred to polyvinylidene difluoride membranes using the semidry procedure as described in “Müller, G. et al., (2001) Mol. Cell. Biol. 21: 4553-4567”. Washed membranes were incubated with anti-caveolin-1 (1:2000), anti-pp59^Lyn (1:1250), anti-aP (1:500), anti-5′-Nuc (1:750) and anti-IRS-1 (1:2000) antibodies for 4 h at 15° C. Washed membranes were incubated with horseradish peroxidase-coupled secondary goat anti-mouse (1:2000) or goat anti-rabbit IgG (1:4000) antibodies. Labeled proteins were visualized by enhanced chemiluminescence.
FIG. 6: Effect of GPI-2350 on the glimepiride/insulin-induced dissociation of signaling proteins from caveolin. Isolated rat adipocytes were treated (5 min, 37° C.) without or with GPI-2350 (left panels, 50 μM; right panels, increasing conc.) and then incubated (120 min, 37° C.) in the absence or presence of insulin (10 nM) or glimepiride (20 μM). hcDIGs were prepared from the adipocytes and then solubilized. Caveolin-1 immunoprecipitates prepared from the solubilized hcDIGs were assayed for the presence of pp59^Lyn and Gce1 by immunoblotting and photoaffinity-labeling, respectively. […]

isolated rat adipocytes = test: isoproterenol-induced lipolysis measured as release of NBD-FA; assay type: cell-based
Description: Electroporation was performed as described in “Müller, G. et al., (2000) Mol. Cell. Biol. 20: 4708-4723”. Lipolysis was determined as release of glycerol or fluorescent NBD-FA from prelabeled and isoproterenol-stimulated adipocytes as described in “Müller, G. et al., (2003) Biochimie 85: 1245-1256”. Gce1 was detected by photolabeling of solubilized plasma membranes or hc/lcDIGs (10-50 μg protein) with 8-N3—[^32P]cAMP and subsequent phosphorimaging as described in “Müller, G. et al., (1994) Biochemistry 33: 12149-12159”. 5′-Nuc, aP and AChE activities were measured according to “Eliakim, R. et al., (1990) Biochim. Biophys. Acta 1355: 293-302”. Protein was determined using the BCA protein determination kit from Pierce (Rockford, Ill.) and BSA as calibration standard. SDS-PAGE was performed using precast gels (Novex, San Diego, Calif.; 10% Bis-Tris resolving gel, morpholinopropanesulfonic acid-SDS running buffer). Lumiimages were evaluated on a LumiImager using LumiImager software (Roche Diagnostics). Phosphor- and fluorescence images were processed and quantified using the Storm 860 PhosphorImager system (Molecular Dynamics, Gelsenkirchen, Germany). Figures were constructed using the ADOBE PHOTOSHOP software (Adobe Systems, Mountain View, Calif.).
FIG. 9: Isolated rat adipocytes were labeled with 0.5 mM NBD-FA (60 min, 37° C.), washed and then incubated (5 min, 37° C.) in the absence (Panels B, D) or presence of GPI-2350 (50 μM; Panels A, C) prior to challenge with increasing concentrations of glimepiride (Panels A, B) or insulin (Panels C, D). After further incubation (120 min, 37° C.) without or with isoproterenol (1 μM) as indicated, total cell suspensions were extracted with chloroform/heptane/methanol/0.1 N HCl (3/3/2/1, by vol.). The organic phases were analyzed by thin layer chromatography (diethylether/petrolether/acetic acid 78/22/1, by vol.) and fluorescence imaging in parallel with NBD-FA as marker. A typical experiment with 2 independent labelings and incubations is shown repeated once with similar results. TAG, triacylglycerol.

[4] = cited from earlier work

Molecule | inhibition in words [1] | 5′-Nuc amphiph IcDIGs [2] [arb. units] | 5′-Nuc hydroph. IcDIGs [2] [arb. units] | 5′-Nuc hydroph. hcDIGs [2] [arb. units] | Gce1 amphiph IcDIGs [2] [arb. units] | Gce1 hydroph. IcDIGs [2] [arb. units] | Gce1 hydroph. hcDIGs [2] [arb. units] | aP amphiph IcDIGs [2] [arb. units] | aP hydroph. IcDIGs [2] [arb. units] | aP hydroph. hcDIGs [2] [arb. units] | 5′-Nuc hydroph. PM [2] [arb. units] | Gce1 hydroph. PM [2] [arb. units] | aP hydroph. PM [2] [arb. units] | 5′-Nuc amphiph hcDIGs [2] [arb. units] | Gce1 amphiph hcDIGs [2] [arb. units] | aP amphiph hcDIGs [2] [arb. units] | induced maximal losses of pp59Lyn and Gce1 from caveolin-1 immunoprecipitates [3] | other results
CCCCCCCCCCCCP1(=O)OC2C(O)C(O)C(O)C(O)C2O1 (racemic) [GPI-2350, myo-inositol-1,2-cyclo-dodecylphosphonic acid] |  |  |  |  |  |  |  |  |  |  |  |  |  |  |  |  |  | stability as dried amorphous solid (stability of compound 3; 4° C.): dried amorphous solid for years; stability in methanol (stability of compound 3; methanol): stable in methanol for days
CCCCCCCCCCCCP(=O)(O)O[C@@H]1[C@H](O)[C@H](O)[C@@H](O)[C@H](O)[C@H]1O[C@H]1O[C@H](CO)[C@@H](O)[C@H](O)[C@H]1N [GMI-1-dodecylphosphonate] | considerably more inhibitory than the corresponding hexyl derivative |  |  |  |  |  |  |  |  |  |  |  |  |  |  |  |  | 
CCC1=C(C)CN(C(=O)NCCc2ccc(S(=O)(=O)NC(=O)N[C@H]3CC[C@H](C)CC3)cc2)C1=O [Glimepiride, glimepiride] |  | 59 ± 9 | 9 ± 3 | 48 ± 10 | 79 ± 15 | 12 ± 5 | 69 ± 9 | 49 ± 8 | 10 ± 2 | 88 ± 19 | 19 ± 5 | 40 ± 11 | 54 ± 12 | 35 ± 10 | 25 ± 10 | 10 ± 3 | 75-85% | IC50 (isolated rat adipocytes; Rattus norvegicus, Adipocyte, isoproterenol-induced adipocytes, FIG. 9, read-out: IC50 for reduction of NBD-FA release): 3 µM; reduction of NBD-FA release in the presence of inhibitor (isolated rat adipocytes; in the presence of 50 μM glimepiride (so in the source), Panels A, B): completely abrogated; time of greatest blood glucose lowering effects after the dose ([4]; human, in vivo): ≤ 4 h; hypoglycaemia, patients ([4]; receiving concomitant insulin for 6 months): ≤ 50%
N[C@H]1[C@@H](O[C@@H]2[C@@H](O)[C@H](O)[C@@H](O)[C@H]3OP(=O)(O)O[C@H]32)O[C@H](CO)[C@@H](O)[C@@H]1O [glucosamine (α1→6)-inositol-1,2-cyclic phosphate] | better inhibitor than GMI-1-phosphate |  |  |  |  |  |  |  |  |  |  |  |  |  |  |  |  | 
CCCCCCCCCCCCOP(=O)(O)OC1C(O)C(O)C(O)C(O)C1O (stereo not shown) [myo-inositol-1-O-dodecylphosphate] | inhibit the trypanosomal GPI-PLC |  |  |  |  |  |  |  |  |  |  |  |  |  |  |  |  | 
Insulin: Human recombinant insulin |  | 28 ± 4 | 7 ± 2 | 34 ± 8 | 35 ± 9 | 19 ± 5 | 58 ± 12 | 27 ± 5 | 4 ± 2 | 69 ± 8 | 14 ± 5 | 29 ± 7 | 31 ± 6 | 81 ± 17 | 64 ± 8 | 44 ± 7 | 35-45% | IC50 (isolated rat adipocytes; absence of GPI-2350, read-out: apparent IC50 for inhibition of NBD-FA release): 0.1 µM; IC50 (isolated rat adipocytes; presence of GPI-2350 (50 μM), read-out: apparent IC50 for inhibition of NBD-FA release): 0.3 µM
